Test results reported in patent US10597388B2, “Pyridazinone herbicides” (FMC CORPORATION, priority 2014, dated 2020).

Assays:
Format in all cases: in vivo
[1] = test system: oat, wild (wild oat, Avena fatua); experiment: Test C greenhouse herbicide test, postemergence
Procedure, shortened: (§1)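 Test chemicals were applied postemergence to greenhouse plants at the 1- to 4-leaf stage (2–18 cm tall) growing in peat/vermiculite medium. After 13–15 d, injury was rated visually against untreated controls on a 0–100 scale (0 = no effect, 100 = complete control).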

kochia (Kochia scoparia) [2] = experiment: Test C greenhouse herbicide test, postemergence
Procedure, shortened: as §1

[3] = test system: blackgrass (Alopecurus myosuroides); experiment: Test A greenhouse herbicide test, postemergence
Procedure, shortened: (§2)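 Seedlings in a loam soil and sand mix received formulated compound postemergence at the one- to two-leaf stage. Greenhouse holding lasts approximately 10 d, then injury is scored visually relative to untreated plants, 0 meaning no effect and 100 complete control.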

[4] = test system: galium (catchweed bedstraw, Galium aparine); experiment: Test A greenhouse herbicide test, postemergence
Procedure, shortened: as §2

[5] = test system: ragweed (common ragweed, Ambrosia elatior); experiment: Test A greenhouse herbicide test, pre- and postemergence
Procedure, shortened: (§3)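 Visual injury ratings, 0 (no effect) to 100 (complete control), versus untreated plants after roughly 10 d in a greenhouse. Compounds, formulated in a surfactant-containing non-phytotoxic solvent, were sprayed on loam–sand soil after sowing (pre) or on one- to two-leaf plants 2–10 cm tall (post).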

corn (Zea mays) = experiment: as above; conditions: Postemergence
Procedure, shortened: as §3

kochia (Kochia scoparia) [6] = experiment: as above
Procedure, shortened: as §3

[7] = test system: wheat (Triticum aestivum); experiment: as above; conditions: Postemergence
Procedure, shortened: as §3

[8] = test system: barnyardgrass (Echinochloa crus-galli); experiment: as above
Procedure, shortened: as §3

[9] = test system: pigweed (Amaranthus retroflexus); experiment: as above
Procedure, shortened: as §3

[10] = test system: oilseed rape (Brassica napus); experiment: Test C greenhouse herbicide test, pre- and postemergence
Procedure, shortened: (§4)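 Greenhouse pots; pre-em on seeded loam:sand blend, post-em on 2–18 cm plants (1–4 leaf) in sphagnum peat/vermiculite medium. Formulation: non-phytotoxic solvent + surfactant. Read-out: visual % control (0–100) vs controls at 13–15 d.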

[11] = test system: crabgrass, large (large crabgrass, Digitaria sanguinalis); experiment: as above
Procedure, shortened: as §4

[12] = Postemergence, 31 g ai/ha, scale 0 to 100 (0 no effect, 100 complete control)
[13] = Postemergence, 62 g ai/ha, 0 to 100 scale (0 no effect, 100 complete control)
[14] = Postemergence, 250 g ai/ha, scale 0 to 100, 0 no effect, 100 complete control, 13 to 15 d
[15] = postemergence, 125 g ai/ha, scale 0 to 100, 0 no effect, 100 complete control
[16] = 125 g ai/ha, 0 to 100 scale, 0 no effect, 100 complete control
[17] = 500 g ai/ha, visual rating after approx. 10 d, 0 to 100 scale (0 no effect, 100 complete control)
[18] = Postemergence, 125 g ai/ha, 0 to 100 scale, 0 no effect, 100 complete control
[19] = Postemergence, 500 g ai/ha, visual rating after approx. 10 d, 0 to 100 scale (0 no effect, 100 complete control)
[20] = Preemergence, 125 g ai/ha, visual injury rating, 0 to 100 scale (0 no effect, 100 complete control), approx. 10 d
[21] = Preemergence, 500 g ai/ha, 0 to 100 scale where 0 is no effect and 100 is complete control
[22] = Preemergence, 31 g ai/ha, scale 0 to 100, 0 is no effect, 100 is complete control
[23] = Preemergence, 62 g ai/ha, scale 0 to 100, 0 is no effect, 100 is complete control
[24] = Preemergence, 125 g ai/ha, scale 0 to 100, 0 is no effect, 100 is complete control
[25] = Preemergence, 250 g ai/ha, scale 0 to 100 (0 no effect, 100 complete control)

Compound: Cc1cc(C)c2ccccc2c1-c1c(OS(C)(=O)=O)c(C)nn(C)c1=O [Compound 154]
- Plant response rating, Oat, Wild [1, 12]: 55
- Oat, Wild plant response rating [1, 13]: 80
- Plant response rating, Oat, Wild [1, 14]: 90
- Oat, Wild plant response rating [1, 15]: 90
- Plant response rating, Kochia (kochia (Kochia scoparia) [2]; [12]): 50
- Kochia plant response rating (kochia (Kochia scoparia) [2]; [13]): 50
- Plant response rating, Kochia (kochia (Kochia scoparia) [2]; [14]): 80
- Kochia plant response rating (kochia (Kochia scoparia) [2]; [15]): 60
- Plant response rating, Blackgrass [3, 16]: 70
- Plant response rating, Blackgrass [3, 17]: 90
- Plant response rating, Galium [4, 16]: 100
- Plant response rating, Galium [4, 17]: 100
- Plant response rating, Ragweed [5, 18]: 80
- Plant response rating, Ragweed [5, 19]: 80
- Plant response rating, Ragweed [5, 20]: 80
- Plant response rating, Ragweed [5, 21]: 90
- Plant response rating, Corn (corn (Zea mays); [16]): 0
- Plant response rating, Corn (corn (Zea mays); [17]): 40
- Plant response rating, Kochia (kochia (Kochia scoparia) [6]; [18]): 20
- Plant response rating, Kochia (kochia (Kochia scoparia) [6]; [19]): 50
- Plant response rating, Kochia (kochia (Kochia scoparia) [6]; [20]): 0
- Plant response rating, Kochia (kochia (Kochia scoparia) [6]; [21]): 20
- Plant response rating, Wheat [7, 16]: 0
- Plant response rating, Wheat [7, 17]: 20
- Plant response rating, Barnyardgrass [8, 18]: 90
- Plant response rating, Barnyardgrass [8, 19]: 90
- Plant response rating, Barnyardgrass [8, 20]: 70
- Plant response rating, Barnyardgrass [8, 21]: 100
- Plant response rating, Pigweed [9, 18]: 90
- Plant response rating, Pigweed [9, 19]: 90
- Plant response rating, Pigweed [9, 20]: 100
- Plant response rating, Pigweed [9, 21]: 100
- Plant response rating, Oilseed Rape [10, 12]: 75
- Oilseed Rape plant response rating [10, 13]: 90
- Plant response rating, Oilseed Rape [10, 14]: 95
- Plant response rating, Oilseed Rape [10, 22]: 80
- Plant response rating, Oilseed Rape [10, 23]: 85
- Plant response rating, Oilseed Rape [10, 24]: 98
- Oilseed Rape plant response rating [10, 25]: 98
- Oilseed Rape plant response rating [10, 15]: 98
- Plant response rating, Crabgrass, Large [11, 12]: 65
- Crabgrass, Large plant response rating [11, 13]: 70
- Plant response rating, Crabgrass, Large [11, 14]: 75
- Plant response rating, Crabgrass, Large [11, 22]: 70
- Plant response rating, Crabgrass, Large [11, 23]: 85
- Plant response rating, Crabgrass, Large [11, 24]: 90
- Crabgrass, Large plant response rating [11, 25]: 100
- Crabgrass, Large plant response rating [11, 15]: 70

Compound: COC(=O)Oc1c(C)nn(C)c(=O)c1-c1c([N+](=O)[O-])ccc2ccccc12 [Compound 162]
- Plant response rating, Oat, Wild [1, 12]: 50
- Oat, Wild plant response rating [1, 13]: 60
- Plant response rating, Oat, Wild [1, 14]: 70
- Oat, Wild plant response rating [1, 15]: 70
- Plant response rating, Kochia (kochia (Kochia scoparia) [2]; [12]): 70
- Kochia plant response rating (kochia (Kochia scoparia) [2]; [13]): 80
- Plant response rating, Kochia (kochia (Kochia scoparia) [2]; [14]): 90
- Kochia plant response rating (kochia (Kochia scoparia) [2]; [15]): 90
- Plant response rating, Blackgrass [3, 16]: 20
- Plant response rating, Blackgrass [3, 17]: 40
- Plant response rating, Galium [4, 16]: 90
- Plant response rating, Galium [4, 17]: 100
- Plant response rating, Ragweed [5, 18]: 80
- Plant response rating, Ragweed [5, 19]: 100
- Plant response rating, Ragweed [5, 20]: 50
- Plant response rating, Ragweed [5, 21]: 90
- Plant response rating, Corn (corn (Zea mays); [16]): 20
- Plant response rating, Corn (corn (Zea mays); [17]): 30
- Plant response rating, Kochia (kochia (Kochia scoparia) [6]; [18]): 70
- Plant response rating, Kochia (kochia (Kochia scoparia) [6]; [19]): 90
- Plant response rating, Kochia (kochia (Kochia scoparia) [6]; [20]): 60
- Plant response rating, Kochia (kochia (Kochia scoparia) [6]; [21]): 90
- Plant response rating, Wheat [7, 16]: 0
- Plant response rating, Wheat [7, 17]: 20
- Plant response rating, Barnyardgrass [8, 18]: 20
- Plant response rating, Barnyardgrass [8, 19]: 50
- Plant response rating, Barnyardgrass [8, 20]: 10
- Plant response rating, Barnyardgrass [8, 21]: 20
- Plant response rating, Pigweed [9, 18]: 80
- Plant response rating, Pigweed [9, 19]: 90
- Plant response rating, Pigweed [9, 20]: 80
- Plant response rating, Pigweed [9, 21]: 90
- Plant response rating, Oilseed Rape [10, 12]: 0
- Oilseed Rape plant response rating [10, 13]: 0
- Plant response rating, Oilseed Rape [10, 14]: 0
- Oilseed Rape plant response rating [10, 15]: 0
- Plant response rating, Crabgrass, Large [11, 12]: 0
- Crabgrass, Large plant response rating [11, 13]: 5
- Plant response rating, Crabgrass, Large [11, 14]: 10
- Crabgrass, Large plant response rating [11, 15]: 10
